Experimental data published in ChEMBL document CHEMBL1201862, “PubChem BioAssay data set” (2004).
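Interpolation was linear, between the two tested concentrations surrounding the appropriate level; five concentrations were tested over 48 hours in 96-well plates. GI50 = concentration required for 50% inhibition of growth.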 The source made the active and inactive calls. Cut-off read from the data, not from the text of the source: active = GI50 up to about 1.1 µM and inactive = higher.

What was measured:
Test in all cases: NCI tumour cell line growth inhibition, 48 h
[1] = tested on: OVCAR-8
[2] = tested on: SK-MEL-28
[3] = tested on: IGROV-1
[4] = tested on: TK-10
[5] = tested on: SNB-75
[6] = tested on: A549
[7] = tested on: UACC-257
[8] = tested on: SN12C
[9] = tested on: HOP-62
[10] = tested on: OVCAR-4
[11] = tested on: SF-539
[12] = tested on: KM12
[13] = tested on: OVCAR-3
[14] = tested on: Malme-3M
[15] = tested on: NCI-H522
[16] = tested on: RXF 631
[17] = tested on: SK-OV-3
[18] = tested on: CCRF-CEM
[19] = tested on: ACHN
[20] = tested on: EKVX
[21] = tested on: K562
[22] = tested on: KM-20L2
[23] = tested on: M19-MEL
[24] = tested on: LOX IMVI
[25] = tested on: SF-268
[26] = tested on: MOLT-4
[27] = tested on: CAKI-1
[28] = tested on: DMS-273
[29] = tested on: NCI-H226
[30] = tested on: COLO 205
[31] = tested on: SF-295
[32] = tested on: SR
[33] = tested on: SK-MEL-5
[34] = tested on: HOP-92
[35] = tested on: SW-620
[36] = tested on: SNB-19
[37] = tested on: LXFL 529
[38] = tested on: RPMI-8226
[39] = tested on: 786-0
[40] = tested on: M14
[41] = tested on: SNB-78
[42] = tested on: HT-29
[43] = tested on: A498
[44] = tested on: NCI-H23
[45] = tested on: UO-31
[46] = tested on: SK-MEL-2
[47] = tested on: HCC 2998
[48] = tested on: DMS-114
[49] = tested on: DLD-1
[50] = tested on: UACC-62
[51] = tested on: HCT-15
[52] = tested on: NCI-H460
[53] = tested on: RXF 393
[54] = tested on: U-251
[55] = tested on: XF498
[56] = tested on: OVCAR-5
[57] = tested on: HL-60

Measured: GI50

CC(=O)OC1COC(N2C(=O)C(=O)c3ccccc32)C(OC(C)=O)C1OC(C)=O (configuration not stated)
> 100 µM: [51]
inactive: [1] > 100 µM | [2] > 100 µM | [3] > 100 µM | [4] > 100 µM | [5] > 100 µM | [6] > 100 µM | [7] > 100 µM | [8] > 100 µM | [9] > 100 µM | [10] > 100 µM | [11] > 100 µM | [12] > 100 µM | [13] > 100 µM | [14] > 100 µM | [15] > 100 µM | [16] > 100 µM | [17] > 100 µM | [18] > 100 µM | [19] > 100 µM | [20] > 100 µM | [21] > 100 µM | [22] > 100 µM | [23] 34.8 µM | [24] > 100 µM | [25] > 100 µM | [26] > 100 µM | [27] > 100 µM | [28] > 100 µM | [29] > 100 µM | [30] > 100 µM | [31] > 100 µM | [32] > 100 µM | [33] > 100 µM | [34] > 100 µM | [35] > 100 µM | [36] > 100 µM | [37] > 100 µM | [38] > 100 µM | [39] > 100 µM | [40] > 100 µM | [41] > 100 µM | [42] > 100 µM | [43] > 100 µM | [44] > 100 µM | [45] > 100 µM | [46] > 100 µM | [47] > 100 µM | [48] > 100 µM | [49] > 100 µM | [50] 68.9 µM | [52] > 100 µM | [53] > 100 µM | [54] > 100 µM

COc1cc(/C=C(\NC(=O)c2ccccc2)c2nc3c(O)nc(S)nc3[nH]2)cc(OC)c1OC
inactive: [1] > 100 µM | [2] > 100 µM | [3] > 100 µM | [4] > 100 µM | [6] > 100 µM | [8] > 100 µM | [55] > 100 µM | [10] > 100 µM | [11] > 100 µM | [12] > 100 µM | [13] > 100 µM | [14] > 100 µM | [15] > 100 µM | [16] > 100 µM | [17] > 100 µM | [18] > 100 µM | [19] > 100 µM | [20] > 100 µM | [21] > 100 µM | [22] > 100 µM | [23] > 100 µM | [25] > 100 µM | [26] > 100 µM | [27] > 100 µM | [30] > 100 µM | [31] > 100 µM | [32] > 100 µM | [33] > 100 µM | [56] > 100 µM | [34] 59.3 µM | [57] > 100 µM | [35] > 100 µM | [36] > 100 µM | [37] > 100 µM | [39] > 100 µM | [40] > 100 µM | [41] > 100 µM | [42] > 100 µM | [44] > 100 µM | [45] > 100 µM | [46] > 100 µM | [47] > 100 µM | [48] > 100 µM | [49] > 100 µM | [50] > 100 µM | [53] > 100 µM | [54] > 100 µM
> 100 µM: [51]
